Experimental data published in patent US11207301B2, “Sphingosine 1 phosphate receptor agonists for neuroprotection” (RECEPTOS LLC, priority 2017, dated 2021).

Key:
[1] = system: experimental autoimmune encephalomyelitis (EAE)-induced mouse model of Multiple Sclerosis (MS); assay: Experimental autoimmune encephalomyelitis (EAE)-induced mouse model of multiple sclerosis, oral ozanimod; assay type: in vivo, C57BL/6 mice; conditions: EAE mice
Text: In one embodiment, the S1P receptor agonist provides therapeutic benefit in the context of relapsing-remitting multiple sclerosis (RRMS), by down-modulating S1P receptor and resulting in retention of autoreactive lymphocytes in secondary lymphoid organs. As set forth in greater detail below, ozanimod activity on immune cell subsets was examined in the experimental autoimmune encephalomyelitis (EAE)-induced mouse model of Multiple Sclerosis (MS). C57BL/6 mice were immunized with MOG35-55 and pertussis toxin to initiate immune cell activation, migration to the spinal cord and neurodegeneration. Animals were treated with oral ozanimod either semi-therapeutically or therapeutically to investigate the impact on peripheral immune cell expansion and migration into the spinal cord. The plasma biomarker of CNS injury, neurofilament light (NfL), was measured at study termination.
Ozanimod activity on immune cell subsets was examined in the experimental autoimmune encephalomyelitis (EAE)-induced mouse model of Multiple Sclerosis (MS). C57BL/6 mice were immunized with MOG35-55 and pertussis toxin to initiate immune cell activation, migration to the spinal cord and neurodegeneration. Animals were treated with oral ozanimod either semi-therapeutically or therapeutically to investigate the impact on peripheral immune cell expansion and migration into the spinal cord. The plasma biomarker of CNS injury, neurofilament light (NfL), was measured at study termination.

Recombinant human MAO-B = target: T1, Recombinant human MAO-B (Homo sapiens, UniProt P27338); assay: MAO-B inhibition, conversion of kynuramine to 4-hydroxyquinoline; assay type: biochemical
T1 construct: purchased Sigma-Aldrich M7441; host or cells: baculovirus infected insect cells
T1 sequence (P27338 1-520): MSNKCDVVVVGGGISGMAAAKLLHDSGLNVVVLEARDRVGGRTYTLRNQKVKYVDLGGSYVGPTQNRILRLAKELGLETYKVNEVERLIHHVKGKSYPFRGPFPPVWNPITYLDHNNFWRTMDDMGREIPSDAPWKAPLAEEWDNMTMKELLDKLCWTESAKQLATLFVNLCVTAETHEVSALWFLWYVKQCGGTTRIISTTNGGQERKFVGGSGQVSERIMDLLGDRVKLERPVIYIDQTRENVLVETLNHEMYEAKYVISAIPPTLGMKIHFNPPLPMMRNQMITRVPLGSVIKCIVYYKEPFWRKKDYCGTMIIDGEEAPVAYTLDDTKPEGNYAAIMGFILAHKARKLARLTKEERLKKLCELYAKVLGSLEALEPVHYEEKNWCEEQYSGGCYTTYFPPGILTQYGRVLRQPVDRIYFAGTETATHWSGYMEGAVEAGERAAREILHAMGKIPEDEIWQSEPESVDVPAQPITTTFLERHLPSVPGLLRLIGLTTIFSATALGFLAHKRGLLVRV
Procedure: The effect of a S1P receptoragonist on MAO-B activity can be assessed by measuring the inhibition of conversion of substrate kynuramine to 4-hydroxyquinoline as described in Example 4.
Compound 1 and Compound 2-S were evaluated for their ability to inhibit MAO-A and MAO-B. Inhibition of the conversion of kynuramine, a substrate for MAO-A and MAO-B, to 4-hydroxyquinoline was used to assess the inhibitory potential of Compound 1 and Compound 2-S. Recombinant human MAO-A (product number M7316) and MAO-B (product number M7441) expressed in baculovirus infected insect cells were obtained from Sigma-Aldrich, Saint Louis, Mo. USA were used as a source of purified MAOs.
Recombinant MAO-A (0.01 mg/mL, final concentrations) and MAO-B (0.02 mg/mL, final concentration) were diluted to desired concentrations in 100 mM potassium phosphate buffer (pH 7.4) containing 5 mM MgCl2. The diluted protein fractions were preincubated with various concentrations of each test compound at 37° C. for 2 min. The concentrations used were 100, 33, 10, 3.3, 1.0, 0.33 μM and acetonitrile/DMSO as vehicle control for MAO-A and 1.0, 0.3, 0.1, 0.03, 0.01, 0.003 μM and acetonitrile/DMSO as vehicle control for MAO-B. The reaction was started by addition of kynuramine to the incubation mixture. The final concentration of kynuramine was 40 μM for MAO-A and 25 μM for MAO-B. The total incubation volume was 0.250 mL. This concentration was selected to be close to the Km values of MAO-A (Km 42 μM) and MAO-B (Km 26 μM). After 10 min of incubation, aliquots (100 μL) of the reaction mixture were taken and added to 200 μL acetonitrile containing 0.5 μM IS (acetaminophen). The reaction product, 4-hydroxyquinoline was analyzed by LC-MS/MS as described below.
MS characterization and detection of kynuramine and 4-hydroxyquinoline was performed using ABI 4000 Sciex QTrap mass spectrometer utilizing a Turbo Spray. The mass spectrometer was controlled by Analyst v1.6.2. The ESI was operated in a positive ion mode and the experimental parameters were set as follows: ion spray voltage, 2000; source temperature, 550° C.; curtain gas, 20; collision gas, medium ion source gas 1, 55; ion source gas 2, 50. […]
The gradient system was used to separate the analytes with a flow rate of 0.5 ml/min using mobile phase A, water containing 0.1% formic acid and mobile phase B, acetonitrile containing 0.1% formic acid. […] The analytes were monitored using multiple reaction monitoring and the ion transitions (Q1/Q3) were as follows: 4-hydroxyquinoline 146/104 (collision energy, CE was 27; declustering potential, DP, 50, and IS (acetaminophen), 152/110 (collision energy, CE was 27; declustering potential, DP, 50). All data were analyzed using AB Sciex Analyst v1.6.2 software.

Row | SMILES | spinal cord inflammation and demyelination [1] | reduction of microglia expansion in the spinal cord ([1]; day 18-21 post-immunization) | decrease of monocyte infiltration into the spinal cord ([1]; oral ozanimod) | diminished Th1 and Th17 cell expansion in the periphery ([1]; oral ozanimod) | reduction of the number of Th1 and Th17 cells in the spinal cord ([1]; oral ozanimod) | plasma biomarker of CNS injury NfL ([1]; therapeutic dosing, at study termination, vehicle 3298±350, p=0.05) | MAO-B inhibition (in words) (Recombinant human MAO-B) | IC50 (Recombinant human MAO-B; kynuramine 25 μM, 10 min incubation)
1 | CC(C)Oc1ccc(-c2nc(-c3cccc4c3CC[C@@H]4NCCO)no2)cc1C#N [Ozanimod] | reduce spinal cord inflammation and demyelination | 75% | 65% | 60-70% | ≥ 80% | 2209 ± 393 pg/mL | – | –
2 | CC(C)Oc1ccc(-c2nc(-c3cccc4c3CCC4=O)no2)cc1C#N [Compound 1, 2-isopropoxy-5-(3-(1-oxo-2,3-dihydro-1H-inden-4-yl)-1,2,4-oxadiazol-5-yl)benzonitrile] | – | – | – | – | – | – | potent inhibition | 6.6 nM
